Test system: adult foraging workers of Apis mellifera
Assay: Acute toxicity to honey bees, Potter Spray Tower
Format: in vivo
Details: for Knockdown (K), no. of bees / Mortality (D), no. of bees: n = 10, extract 1.0% w/v, bifenthrin 0.05% w/v
Protocol: The laboratory-based bioassay was performed to assess the acute toxicity of the extracts against adult foraging workers of Apis mellifera. 3 mL aliquots of P. jaceoides extract were applied at 1.0% a.i. w/v via a Potter Spray Tower, using the methodology previously described for the preparation and application of this plant extract to test insects.
Bifenthrin (CAS No 82657-04-3) 97.0% technical (Batch 50118) was sourced from Dr. Ehrenstorfer GmbH D-86190 Augsburg, Germany. A 0.05% w/v a.i. concentration was prepared by dissolving 0.013 g bifenthrin in 1 mL acetone, sonicating for 5 min and then diluted in a 25 mL volumetric flask with 200 ppm Triton X-100 in distilled water. It was applied using a 3 mL aliquot of the 0.05% a.i via a Potter Spray Tower; this concentration was based on recommended label rate in cotton. The control comprised 5 mL acetone and water-Triton X-100 mixture only; two controls were conducted.
Apis mellifera foraging workers for bioassay were collected from a strong, healthy hive at Western Sydney University apiary, at Richmond NSW, Australia, by blocking the hive entrance for 1 min and collecting foragers with a sweep net.
They were immediately transferred to a mesh cage (25×33×33 cm) and maintained in the laboratory at 24° C., where they were fed ad libidum sugar:water 1:1 w/v from cotton wool placed on the mesh at the top of the cage until bioassay, which was undertaken within 1 h of bee collection. Bees for bioassay were randomly collected from the cage using a 120 mL plastic specimen tube, and anaesthetised with medical grade CO2 for 30 s, then ten bees were placed on a 90 mm diameter Petri dish lined with filter paper. The dish with the bees was placed on the Potter Spray Tower stage, and the respective treatment applied, commencing with the control and finishing with bifenthrin treatment.
Immediately after treatment, the treated bees were gently transferred to 250 mL glass beakers, fine nylon mesh was fitted to the top with a rubber band, and the bees fed were sugar:water as above and maintained at 26° C. in very low light. Bee activity was regularly observed and recorded, at 10 min intervals until 420 min (viz. 7 HAT), then less frequently until 48 HAT. By this time, there was bee mortality in both controls, so the investigation was terminated. Data recorded were signs of intoxication, knockdown (K) and mortality (D).

Cc1c(COC(=O)[C@@H]2[C@H](/C=C(\Cl)C(F)(F)F)C2(C)C)cccc1-c1ccccc1 (racemic) [Bifenthrin]
knockdown commenced (0.05% w/v a.i.): 10 MAT
mortality commenced (0.05% w/v a.i.): 90 MAT
time of 50% bee knockdown (0.05% w/v a.i.): 45-50 MAT
time of 50% mortality (0.05% w/v a.i.): 240 MAT
Knockdown (K), no. of bees (10 min): 1K
Knockdown (K), no. of bees (20 min): 1K
Knockdown (K), no. of bees (30 min): 2K
Knockdown (K), no. of bees (40 min): 3K
Knockdown (K), no. of bees (45 min): 4K
Knockdown (K), no. of bees (50 min): 6K
Knockdown (K), no. of bees (60 min): 6K
Knockdown (K), no. of bees (70 min): 6K
Knockdown (K), no. of bees (80 min): 6K
Knockdown (K), no. of bees (90 min): 5
Mortality (D), no. of bees (90 min): 1
Knockdown (K), no. of bees (100 min): 3K, 3D
Mortality (D), no. of bees (100 min): 3K, 3D
Knockdown (K), no. of bees (110 min): 4K,
Knockdown (K), no. of bees (120 min): 4K,
Knockdown (K), no. of bees (130 min): 4K,
Knockdown (K), no. of bees (140 min): 3
Mortality (D), no. of bees (140 min): 4
Knockdown (K), no. of bees (150 min): 3
Mortality (D), no. of bees (150 min): 4
Knockdown (K), no. of bees (160 min): 4K, 4D
Mortality (D), no. of bees (160 min): 4K, 4D
Knockdown (K), no. of bees (170 min): 4K, 4D
Mortality (D), no. of bees (170 min): 4K, 4D
Knockdown (K), no. of bees (180 min): 4K, 4D
Mortality (D), no. of bees (180 min): 4K, 4D
Knockdown (K), no. of bees (190 min): 4K, 4D
Mortality (D), no. of bees (190 min): 4K, 4D
Knockdown (K), no. of bees (200 min): 4K, 4D
Mortality (D), no. of bees (200 min): 4K, 4D
Knockdown (K), no. of bees (210 min): 4K, 4D
Mortality (D), no. of bees (210 min): 4K, 4D
Knockdown (K), no. of bees (220 min): 5
Mortality (D), no. of bees (220 min): 4
Knockdown (K), no. of bees (230 min): 5
Mortality (D), no. of bees (230 min): 4
Knockdown (K), no. of bees (240 min): 4
Mortality (D), no. of bees (240 min): 5
Knockdown (K), no. of bees (250 min): 3
Mortality (D), no. of bees (250 min): 6
Knockdown (K), no. of bees (260 min): 3
Mortality (D), no. of bees (260 min): 6
Knockdown (K), no. of bees (270 min): 3
Mortality (D), no. of bees (270 min): 6
Knockdown (K), no. of bees (280 min): 3
Mortality (D), no. of bees (280 min): 6
Knockdown (K), no. of bees (290 min): 3
Mortality (D), no. of bees (290 min): 6
Knockdown (K), no. of bees (300 min): 3
Mortality (D), no. of bees (300 min): 6
Knockdown (K), no. of bees (310 min): 3
Mortality (D), no. of bees (310 min): 6
Knockdown (K), no. of bees (320 min): 3
Mortality (D), no. of bees (320 min): 6
Knockdown (K), no. of bees (330 min): 1
Mortality (D), no. of bees (330 min): 8
Knockdown (K), no. of bees (340 min): 1
Mortality (D), no. of bees (340 min): 8
Knockdown (K), no. of bees (350 min): 1
Mortality (D), no. of bees (350 min): 8
Knockdown (K), no. of bees (360 min): 1
Mortality (D), no. of bees (360 min): 8
Knockdown (K), no. of bees (370 min): 1
Mortality (D), no. of bees (370 min): 8
Knockdown (K), no. of bees (380 min): 1
Mortality (D), no. of bees (380 min): 8
Knockdown (K), no. of bees (390 min): 0
Mortality (D), no. of bees (390 min): 9
Knockdown (K), no. of bees (400 min): 0
Mortality (D), no. of bees (400 min): 9
Knockdown (K), no. of bees (410 min): 0
Mortality (D), no. of bees (410 min): 9
Knockdown (K), no. of bees (420 min): 0
Mortality (D), no. of bees (420 min): 9
Knockdown (K), no. of bees (450 min): 0
Mortality (D), no. of bees (450 min): 9
Mortality (D), no. of bees (480 min): 10D
mortality (by 480 MAT, 0.05% w/v a.i.): 100%
